One substance from patent US11896685B2, “Core-shell network structure comprising biopolymer and composition comprising same” (AMOREPACIFIC CORPORATION, priority 2018, dated 2024) can be followed below.

For this experiment, the system named is human keratinocytes (HaCaT). Briefly: Scratch wound healing (skin regeneration) test, time-lapse microscopy. It is filed as cell-based. Particulars: after 48 hours, scratched HaCaT. Here is the method:
First, human keratinocytes (HaCaT) purchased from CLS (Cat No. 300493) were seeded onto a 24-well cell culture plate at a concentration of 2.0×10^5 cells/600 μL, in DMEM (Lonza, #12-604F) containing 10% fetal bovine serum (GIBCO, #16000-044) and antibiotics (Lonza, #17-602E). After culturing in a 5% CO2 incubator at 37° C. for 24 hours and replacing the medium with DMEM containing 1% fetal bovine serum, the cells were cultured further for 16 hours. After the cells were filled on the culture plate, the cells were damaged by applying a linear scratch using a scratcher (SPL, #SPL201925) and then washed twice. Core-shell network solutions comprising 0.005 wt %, 0.25 wt %, 0.5 wt % or 1 wt % of the core-shell network structure based on the total weight of the solution, were prepared in the same manner as in Example 3 (Examples 4-7). […]
The negative control group, the positive control group and the groups treated with the core-shell network structure at different concentrations were placed on a time-lapse microscope (JuLI™ Stage, NanoEnT) stage in a CO2 incubator and each well was imaged for 48 hours with 1-hour intervals. Then, wound healing area (%) was determined from the acquired images using a software analysis tool (Wound Healing tool).

As for madecassoside, the “wound healing area as compared to the negative control group” value was 1.37 times. Besides, the wound healing area (negative control 30.06%) was 41.25%.
